Reference: ChEMBL document CHEMBL1141428, “Polyisoprenylated benzoylphloroglucinol derivatives from Hypericum sampsonii” (2007)
Converted amounts (≈) assume the structure as drawn.

Tested on: Staphylococcus aureus
Experiment: Antibacterial activity against multidrug-resistant Staphylococcus aureus 1199B overexpressing NorA after 18 hrs
Assay type: functional

In the case of CCn1cc(C(=O)O)c(=O)c2cc(F)c(N3CCNCC3)cc21 [NORFLOXACIN], the MIC is reported as 100 µM (≈ 31.9 µg/mL).
Work on CC(C)=CC[C@H]1C[C@]2(CC=C(C)C)C(=O)C(C(=O)c3ccccc3)=C(O)[C@](CC=C(C)C)(C2=O)C1(C)C yielded an MIC of 7.3 µM (≈ 3.67 µg/mL).
